Consider 13 compounds from ChEMBL document CHEMBL1130835, “Peptidyl beta-homo-aspartals: specific inhibitors of interleukin-1 beta converting enzyme and its homologues (caspases)” (Bioorg Med Chem Lett, 1998).

Structures are written as SMILES.

By IC50 is commonly meant the concentration needed to halve the response being measured.

One assay has as its target T1, Papain (Carica papaya, UniProt P00784).
T1 sequence (P00784 whole entry): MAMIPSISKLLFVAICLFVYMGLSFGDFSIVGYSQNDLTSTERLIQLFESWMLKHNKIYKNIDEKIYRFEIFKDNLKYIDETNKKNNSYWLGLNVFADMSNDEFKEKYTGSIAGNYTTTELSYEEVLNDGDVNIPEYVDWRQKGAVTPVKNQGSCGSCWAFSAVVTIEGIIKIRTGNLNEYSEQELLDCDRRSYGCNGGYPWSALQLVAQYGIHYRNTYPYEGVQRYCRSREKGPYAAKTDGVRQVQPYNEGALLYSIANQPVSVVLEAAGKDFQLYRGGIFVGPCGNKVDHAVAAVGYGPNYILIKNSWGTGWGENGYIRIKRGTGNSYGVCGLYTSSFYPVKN
The assay is described as follows: Ability to inhibit papain was evaluated by amidolytic method using fluorogenic or chromogenic substrates.

In assay [1] the target is T2, Caspase-3 (Homo sapiens, UniProt P42574).
T2 sequence (P42574 whole entry): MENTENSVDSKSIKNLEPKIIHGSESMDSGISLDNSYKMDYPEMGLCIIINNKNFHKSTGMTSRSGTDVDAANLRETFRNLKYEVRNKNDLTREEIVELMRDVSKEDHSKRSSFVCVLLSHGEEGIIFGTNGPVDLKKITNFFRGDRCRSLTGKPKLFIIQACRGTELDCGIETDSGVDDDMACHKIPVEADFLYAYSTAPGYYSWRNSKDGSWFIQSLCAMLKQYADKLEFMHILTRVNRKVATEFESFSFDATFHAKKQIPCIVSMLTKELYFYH
The assay is described as follows: Amidolytic activity of THP.1 cell lysate against Caspase-3 using C3-Asp-AMC as a substrate. It is filed as cell-based.

Assay [2] concerns the target T3, Caspase-1 (Homo sapiens, UniProt P29466).
T3 sequence (P29466 whole entry): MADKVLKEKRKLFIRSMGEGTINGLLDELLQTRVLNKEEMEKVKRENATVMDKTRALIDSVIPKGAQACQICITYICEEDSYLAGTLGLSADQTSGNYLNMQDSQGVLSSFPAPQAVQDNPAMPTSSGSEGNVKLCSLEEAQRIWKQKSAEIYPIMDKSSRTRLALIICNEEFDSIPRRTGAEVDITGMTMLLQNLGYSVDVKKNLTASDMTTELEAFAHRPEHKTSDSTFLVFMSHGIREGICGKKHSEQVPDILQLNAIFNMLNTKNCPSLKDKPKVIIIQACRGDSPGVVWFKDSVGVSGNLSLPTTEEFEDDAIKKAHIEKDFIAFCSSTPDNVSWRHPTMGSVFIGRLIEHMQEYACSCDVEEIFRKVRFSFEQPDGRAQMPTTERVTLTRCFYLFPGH
Put plainly: Amidolytic activity of THP.1 cell lysate against IL-1 beta converting enzyme using C1-Asp-AMC as a substrate. The class given is cell-based.

The target of assay [3] is T3, Caspase-1. The assay is described as follows: Ability to inhibit IL-1 beta converting enzyme was evaluated in LPS-stimulated human whole blood. It is filed as tissue-based.
For assay [4], the target named is T2, Caspase-3. The assay is described as follows: Amidolytic activity of THP.1 cell lysate against Caspase-3 using C3-Asp-AMC as a substrate at 10e -4 M concentration; NI is No Inhibition.
In a further assay the target is Prothrombin (Homo sapiens, UniProt P00734). Put plainly: Ability to inhibit Thrombin was evaluated by amidolytic method using fluorogenic or chromogenic substrates.
In another assay the target is Serine protease 1 (Homo sapiens, UniProt P07477). Put plainly: Ability to inhibit Trypsin was evaluated by amidolytic method using fluorogenic or chromogenic substrates.
Serine protease 1, sequence (P07477 whole entry): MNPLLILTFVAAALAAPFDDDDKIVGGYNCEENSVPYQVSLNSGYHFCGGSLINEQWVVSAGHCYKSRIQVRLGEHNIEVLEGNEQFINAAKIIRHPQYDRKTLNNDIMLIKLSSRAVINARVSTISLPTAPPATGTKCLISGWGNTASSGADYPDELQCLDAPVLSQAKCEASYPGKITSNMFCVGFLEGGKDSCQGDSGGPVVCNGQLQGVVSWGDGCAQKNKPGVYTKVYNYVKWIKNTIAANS

`CC[C@H](C)[C@H](NC(=O)[C@H](CCCN=C(N)N)NC(=O)OCc1ccccc1)C(=O)N[C@H](C=O)Cc1ccccc1` registered a 50% inhibitory concentration (IC50) against Papain of 0.07 µM. Still for that read-out and setting: the same measure for `CC[C@H](C)[C@H](NC(=O)[C@H](CCCN=C(N)N)NC(=O)OCc1ccccc1)C(=O)N[C@H](CC=O)Cc1ccccc1`: 65 µM; for `CC[C@H](C)[C@H](NC(=O)[C@H](CCCN=C(N)N)NC(=O)OCc1ccccc1)C(=O)N[C@@H](C=O)Cc1ccccc1`: 8.5 µM.

As to `CC(=O)N[C@@H](CC(=O)O)C(=O)N[C@@H](CCC(=O)O)C(=O)N[C@H](C(=O)N[C@H](CC=O)CC(=O)O)C(C)C`, the IC50 against Caspase-3 [1] is 0.438 µM; on Caspase-1 [2], 0.0223 µM. The compound `CC(C)COC(=O)N[C@@H](Cc1ccccc1)C(=O)N[C@@H](C=O)CCCN=C(N)N` showed an IC50 against Papain of 12.5 µM. On to `CC(C)COC(=O)N[C@@H](Cc1ccccc1)C(=O)N[C@H](C=O)CCCNC(=N)N`, for which the half-maximal inhibitory concentration (IC50) on Papain was 0.13 µM. Take `CC(=O)N[C@@H](Cc1ccc(O)cc1)C(=O)N[C@H](C(=O)N[C@@H](C)C(=O)N[C@H](CC=O)CC(=O)O)C(C)C`: the IC50 against Caspase-1 [3] was 2.9 µM; at Caspase-3 [4] it was “Not Active”; against Caspase-1 [2], 142 µM.

As for `CC(C)(C)OC(=O)N[C@H](Cc1ccccc1)C(=O)N1CCC[C@@H]1C(=O)N[C@H](CC=O)CCCN=C(N)N`, the figures for the IC50 at Prothrombin and against Serine protease 1 were 0.19 µM and 1.76 µM, respectively. Consider `CC(C)(C)OC(=O)N[C@H](Cc1ccccc1)C(=O)N1CCC[C@@H]1C(=O)N[C@@H](C=O)CCCN=C(N)N`, for which the results for the IC50 on Prothrombin and against Serine protease 1 were 5.44 µM and 1.79 µM, respectively. Consider `CC(=O)N[C@@H](Cc1ccc(O)cc1)C(=O)N[C@H](C(=O)N[C@@H](C)C(=O)N[C@H](C=O)CC(=O)O)C(C)C`, for which the results for the IC50 at Caspase-1 [3], on Caspase-3 [1] and against Caspase-1 [2] were 2 µM, 190 µM and 68 µM, respectively.

Regarding `CC(C)COC(=O)N[C@@H](Cc1ccccc1)C(=O)N[C@H](CC=O)CCCNC(=N)N`, inhibition on Papain was half-maximal at 105 µM (IC50).

On to `CC(=O)N[C@@H](CC(=O)O)C(=O)N[C@@H](CCC(=O)O)C(=O)N[C@H](C(=O)N[C@H](C=O)CC(=O)O)C(C)C`, for which the IC50 entry is “Not Active” against Caspase-3 [4] and 70 µM against Caspase-1 [2]. As for `CC(C)(C)OC(=O)N[C@H](Cc1ccccc1)C(=O)N1CCC[C@@H]1C(=O)N[C@H](C=O)CCCNC(=N)N`, the values for the IC50 on Prothrombin and against Serine protease 1 were 0.009 µM and 0.003 µM, respectively.
